Test results: patent US20050143927A1, “Method for estimating or predicting the anti-tumor activity of a compound and for estimating or predicting the tumor growth in mammals” (Pharmacia Italia S.p.A., priority 2002, published 2005)

Assay: Two-compartment PK model fitted to plasma concentration of Drug-A (Experiment-A)
Conditions: for Vd: male, athymic nude, mouse, iv; for Vd / A (PK macro-constant) / Alpha (PK macro-constant) / B (PK macro-constant) / Beta (PK macro-constant): plasma
[1] = dose 20 mg/kg iv-bolus q4dx3, mean of four mice
[2] = dose 30 mg/kg iv-bolus q4dx3, mean of four mice
[3] = dose 40 mg/kg iv-bolus q4dx3, mean of four mice
[4] = mouse 0, 20 mg/kg iv-bolus q4dx3
[5] = mouse 26, 40 mg/kg iv-bolus q4dx3
[6] = mouse 28, 30 mg/kg iv-bolus q4dx3
[7] = mouse 31, 20 mg/kg iv-bolus q4dx3
[8] = mouse 55, 20 mg/kg iv-bolus q4dx3
[9] = mouse 59, 30 mg/kg iv-bolus q4dx3
[10] = mouse 64, 30 mg/kg iv-bolus q4dx3
[11] = mouse 69, 20 mg/kg iv-bolus q4dx3
[12] = mouse 78, 40 mg/kg iv-bolus q4dx3
[13] = mouse 80, 40 mg/kg iv-bolus q4dx3
[14] = mouse 81, 40 mg/kg iv-bolus q4dx3
[15] = mouse 88, 30 mg/kg iv-bolus q4dx3

Structure (SMILES): CC(=O)O[C@H]1C(=O)[C@@]2(C)[C@H]([C@H](OC(=O)c3ccccc3)[C@]3(O)C[C@H](OC(=O)[C@H](O)[C@@H](NC(=O)c4ccccc4)c4ccccc4)C(C)=C1C3(C)C)[C@]1(OC(C)=O)CO[C@@H]1C[C@@H]2O [Drug-A, paclitaxel]
- A (PK macro-constant), mean [1]: 34294.5621
- B (PK macro-constant), mean [1]: 3467.5180
- K10, mean [1]: 41.0979 day⁻¹
- K12, mean [1]: 16.4430 day⁻¹
- K21, mean [1]: 12.4026 day⁻¹
- α (PK macro-constant), mean [1]: 62.0545
- β (PK macro-constant), mean [1]: 7.8890
- A (PK macro-constant), mean [2]: 56632.6519
- B (PK macro-constant), mean [2]: 759.8587
- K10, mean [2]: 20.8063 day⁻¹
- K12, mean [2]: 2.2085 day⁻¹
- K21, mean [2]: 3.4809 day⁻¹
- α (PK macro-constant), mean [2]: 23.2801
- β (PK macro-constant), mean [2]: 3.2157
- A (PK macro-constant), mean [3]: 62064.8954
- B (PK macro-constant), mean [3]: 7999.4363
- K10, mean [3]: 20.0530 day⁻¹
- K12, mean [3]: 9.5544 day⁻¹
- K21, mean [3]: 6.2425 day⁻¹
- α (PK macro-constant), mean [3]: 32.9706
- β (PK macro-constant), mean [3]: 2.8793
- Vd (20 mg/kg, Vd (apparent volume of distribution of the central compartment), mouse 0, 20 mg/kg iv-bolus q4dx3): 9.51 L/kg
- Vd (20 mg/kg, Vd (apparent volume of distribution of the central compartment), mouse 31, 20 mg/kg iv-bolus q4dx3): 1.34 L/kg
- Vd (20 mg/kg, Vd (apparent volume of distribution of the central compartment), mouse 55, 20 mg/kg iv-bolus q4dx3): 0.719 L/kg
- Vd (20 mg/kg, Vd (apparent volume of distribution of the central compartment), mouse 69, 20 mg/kg iv-bolus q4dx3): 0.188 L/kg
- Vd (20 mg/kg, Vd, mean, dose 20 mg/kg iv-bolus q4dx3, mean of four mice): 2.94 L/kg
- Vd (30 mg/kg, Vd (apparent volume of distribution of the central compartment), mouse 28, 30 mg/kg iv-bolus q4dx3): 0.528 L/kg
- Vd (30 mg/kg, Vd (apparent volume of distribution of the central compartment), mouse 59, 30 mg/kg iv-bolus q4dx3): 0.373 L/kg
- Vd (30 mg/kg, Vd (apparent volume of distribution of the central compartment), mouse 64, 30 mg/kg iv-bolus q4dx3): 0.745 L/kg
- Vd (30 mg/kg, Vd (apparent volume of distribution of the central compartment), mouse 88, 30 mg/kg iv-bolus q4dx3): 0.578 L/kg
- Vd (30 mg/kg, Vd, mean, dose 30 mg/kg iv-bolus q4dx3, mean of four mice): 0.556 L/kg
- Vd (40 mg/kg, Vd (apparent volume of distribution of the central compartment), mouse 26, 40 mg/kg iv-bolus q4dx3): 5.07 L/kg
- Vd (40 mg/kg, Vd (apparent volume of distribution of the central compartment), mouse 78, 40 mg/kg iv-bolus q4dx3): 1.87 L/kg
- Vd (40 mg/kg, Vd (apparent volume of distribution of the central compartment), mouse 80, 40 mg/kg iv-bolus q4dx3): 0.234 L/kg
- Vd (40 mg/kg, Vd (apparent volume of distribution of the central compartment), mouse 81, 40 mg/kg iv-bolus q4dx3): 0.502 L/kg
- Vd (40 mg/kg, Vd, mean, dose 40 mg/kg iv-bolus q4dx3, mean of four mice): 1.92 L/kg
- K10 (constant rate of the elimination process) [4]: 25.15 day⁻¹
- K12 (interchange constant rate) [4]: 15.64 day⁻¹
- K21 (interchange constant rate) [4]: 5.819 day⁻¹
- A (PK macro-constant) [4]: 1975
- Alpha (PK macro-constant) [4]: 43.22
- B (PK macro-constant) [4]: 128.5
- Beta (PK macro-constant) [4]: 3.386
- K10 (constant rate of the elimination process) [5]: 14.22 day⁻¹
- K12 (interchange constant rate) [5]: 1.663 day⁻¹
- K21 (interchange constant rate) [5]: 3.76 day⁻¹
- A (PK macro-constant) [5]: 7586
- Alpha (PK macro-constant) [5]: 16.38
- B (PK macro-constant) [5]: 297.8
- Beta (PK macro-constant) [5]: 3.265
- K10 (constant rate of the elimination process) [6]: 20.98 day⁻¹
- K12 (interchange constant rate) [6]: 1.774 day⁻¹
- K21 (interchange constant rate) [6]: 6.257 day⁻¹
- A (PK macro-constant) [6]: 54798.379413
- Alpha (PK macro-constant) [6]: 23.4
- B (PK macro-constant) [6]: 2069
- Beta (PK macro-constant) [6]: 5.61
- K10 (constant rate of the elimination process) [7]: 22.85 day⁻¹
- K12 (interchange constant rate) [7]: 3.375 day⁻¹
- K21 (interchange constant rate) [7]: 5.126 day⁻¹
- A (PK macro-constant) [7]: 14365.650820
- Alpha (PK macro-constant) [7]: 27.02
- B (PK macro-constant) [7]: 518.5
- Beta (PK macro-constant) [7]: 4.336
- K10 (constant rate of the elimination process) [8]: 35.24 day⁻¹
- K12 (interchange constant rate) [8]: 3.303 day⁻¹
- K21 (interchange constant rate) [8]: 3.947 day⁻¹
- A (PK macro-constant) [8]: 27526.035314
- Alpha (PK macro-constant) [8]: 38.91
- B (PK macro-constant) [8]: 293.5
- Beta (PK macro-constant) [8]: 3.575
- K10 (constant rate of the elimination process) [9]: 18.65 day⁻¹
- K12 (interchange constant rate) [9]: 4.915 day⁻¹
- K21 (interchange constant rate) [9]: 0.005329 day⁻¹
- A (PK macro-constant) [9]: 80469.811028
- Alpha (PK macro-constant) [9]: 23.57
- B (PK macro-constant) [9]: 3.797
- Beta (PK macro-constant) [9]: 0.004217
- K10 (constant rate of the elimination process) [10]: 17.25 day⁻¹
- K12 (interchange constant rate) [10]: 0.5748 day⁻¹
- K21 (interchange constant rate) [10]: 3.444 day⁻¹
- A (PK macro-constant) [10]: 39912.523664
- Alpha (PK macro-constant) [10]: 17.96
- B (PK macro-constant) [10]: 374.8
- Beta (PK macro-constant) [10]: 3.308
- K10 (constant rate of the elimination process) [11]: 81.15 day⁻¹
- K12 (interchange constant rate) [11]: 43.46 day⁻¹
- K21 (interchange constant rate) [11]: 34.72 day⁻¹
- A (PK macro-constant) [11]: 93311.275568
- Alpha (PK macro-constant) [11]: 139.1
- B (PK macro-constant) [11]: 12929.572382
- Beta (PK macro-constant) [11]: 20.26
- K10 (constant rate of the elimination process) [12]: 18.81 day⁻¹
- K12 (interchange constant rate) [12]: 1.318 day⁻¹
- K21 (interchange constant rate) [12]: 0.03721 day⁻¹
- A (PK macro-constant) [12]: 21408.348297
- Alpha (PK macro-constant) [12]: 20.13
- B (PK macro-constant) [12]: 2.6
- Beta (PK macro-constant) [12]: 0.03477
- K10 (constant rate of the elimination process) [13]: 30.07 day⁻¹
- K12 (interchange constant rate) [13]: 35.07 day⁻¹
- K21 (interchange constant rate) [13]: 21.07 day⁻¹
- A (PK macro-constant) [13]: 139526.742848
- Alpha (PK macro-constant) [13]: 78.1
- B (PK macro-constant) [13]: 31692.453321
- Beta (PK macro-constant) [13]: 8.112
- K10 (constant rate of the elimination process) [14]: 17.11 day⁻¹
- K12 (interchange constant rate) [14]: 0.1688 day⁻¹
- K21 (interchange constant rate) [14]: 0.1062 day⁻¹
- A (PK macro-constant) [14]: 79738.401451
- Alpha (PK macro-constant) [14]: 17.28
- B (PK macro-constant) [14]: 4.845
- Beta (PK macro-constant) [14]: 0.1051
- K10 (constant rate of the elimination process) [15]: 26.34 day⁻¹
- K12 (interchange constant rate) [15]: 1.57 day⁻¹
- K21 (interchange constant rate) [15]: 4.217 day⁻¹
- A (PK macro-constant) [15]: 51349.893679
- Alpha (PK macro-constant) [15]: 28.19
- B (PK macro-constant) [15]: 591.6
- Beta (PK macro-constant) [15]: 3.941
